Measurements reported in patent US11160764B2, “Drug delivery composition containing silyl polymers” (Medherant Limited, priority 2015, dated 2021).
≈ marks a conversion by molar mass, not a printed value. Like-named read-outs stand apart in the source and are kept apart here.

Legend:
[1] = Solubility of drugs in the adhesive compositions / patches
Method: Three different grades of composition were employed in solubility experiments: A, B and C (see below). A is the grade which was used for initial studies and further was used as the standard grade for solubility tests.
A sample of composition is pre-heated to 80° C. in a closed cartridge or inert environment to avoid contact with moisture and approximately 10 ml of the composition is added into a beaker and weighed. A desired quantity of drug, preservative and excipients are then added to the mixture. The mixture is mixed until it has been homogenised and is then cast with the help of a heated Meyer bar onto a release liner. Once cast, the layers of composition are cured at 60° C. in a humid environment during 16 hours.
In all experiments benzyl alcohol (BenzOH) was employed as a co-solvent. BenzOH is widely used in both pharmaceutical and cosmetic formulations as a preservative, and therefore its addition is required to improve the shelf life of patches. […] Additionally, it acts as a solvent for drugs improving their dissolution in the polymer matrix compositions. The total amount of BenzOH in all formulations was in a range of 1-3% w/w.
All compounds in the liquid state were added by volume, which was estimated using their specific densities.

[2] = cited from earlier work
[3] = Drug release analysis: permeation from patch across Pion membrane in Franz cell; settings: patch of the invention, PBS pH 7.4
Method: The membrane and patch are then placed in a Franz cell and then a PBS pH 7.4 buffer solution is added. Samples are taken at one hour interval for 8 hours. The amount of drug released is calculated using a validated HPLC/UV-Vis method depending on the drug in question.

Compound: C[C@@H]1CC[C@H]2[C@@H](C)C(=O)O[C@@H]3O[C@@]4(C)CC[C@@H]1[C@]32OO4 [Artemisinin]
- Max. mass fraction [1]: 9%
- Sol. type [1]: Molecular
- Soluble in A [1]: ✓
- Solubility in water [2]: insoluble

Compound: C[C@H]1[C@H](OC(=O)CCC(=O)O)O[C@@H]2O[C@@]3(C)CC[C@H]4[C@H](C)CC[C@@H]1[C@@]24OO3 [Artesunate]
- Max. mass fraction [1]: 6%
- Sol. type [1]: Molecular
- Soluble in A [1]: ✓
- Solubility in water [2]: 56 µg/mL (≈ 146 µM)

Compound: CC(=O)Oc1ccccc1C(=O)O [Aspirin]
- Sol. type [1]: Dispersion

Compound: Cn1c(=O)c2c(ncn2C)n(C)c1=O [Caffeine]
- Permeated drug amount ([3]; sample 1 hours): 0.19 μg cm^−2
- Permeated drug amount ([3]; sample 2 hours): 2.33 μg cm^−2
- Permeated drug amount ([3]; sample 4 hours): 3.26 μg cm^−2
- Permeated drug amount ([3]; sample 6 hours): 21.89 μg cm^−2

Compound: [H]/N=C(\N/C(=N/[H])NCCCCCCNC(=N)NC(=N)Nc1ccc(Cl)cc1)Nc1ccc(Cl)cc1 [Chlorhexidine]
- Sol. type [1]: Molecular
- Solubility in compositions and patches of the invention ([1]; Medherant patches / compositions of the invention): ~3.5 % w/w
- Max. mass fraction ([1]; grade A composition (Table 5)): 3.5%
- Soluble in A ([1]; grade A composition (Table 5)): ✓

Compound: Cc1ccc2c(Cl)cc(Cl)c(O)c2n1 [Chlorquinaldol]
- Max. mass fraction ([1]; grade A composition (Table 5)): 15%
- Sol. type ([1]; grade A composition (Table 5)): Molecular
- Soluble in A ([1]; grade A composition (Table 5)): ✓
- Solubility in compositions and patches of the invention, in words ([1]; grades of the compositions of the invention): good dissolution
- Concentration / mass fraction in patches can be increased up to ([1]; patches of the invention): up to 15 % w/w
- Solubility in water [2]: insoluble

Compound: O=C(O)Cc1ccccc1Nc1c(Cl)cccc1Cl [Diclofenac]
- Permeated drug amount ([3]; sample 1 hours): 0.11 μg cm^−2
- Permeated drug amount ([3]; sample 2 hours): 0.16 μg cm^−2
- Permeated drug amount ([3]; sample 4 hours): 0.39 μg cm^−2
- Permeated drug amount ([3]; sample 6 hours): 0.47 μg cm^−2

Compound: CC(C(=O)O)c1ccc(-c2ccccc2)c(F)c1 (stereo not drawn) [Flurbiprofen]
- Sol. type [1]: Molecular
- Conc., wt % ([1]; grade A composition): >5 wt %
- Solubility of analgesic drugs in compositions: A ([1]; grade A composition): ✓
- Max. mass fraction ([1]; grade A composition (Table 5)): 15%
- Soluble in A ([1]; grade A composition (Table 5)): ✓
- Conc., wt % ([1]; grade B composition): >5 wt %
- Solubility of analgesic drugs in compositions: B ([1]; grade B composition): ✓
- Solubility in water [2]: 25 µg/mL (≈ 102 µM)

Compound: CC(C)Cc1ccc(C(C)C(=O)O)cc1 (stereo not drawn) [Ibuprofen]
- Permeated drug amount ([3]; sample 1 hours): 15.46 μg cm^−2
- Permeated drug amount ([3]; sample 2 hours): 37.23 μg cm^−2
- Permeated drug amount ([3]; sample 4 hours): 73.85 μg cm^−2
- Permeated drug amount ([3]; sample 6 hours): 99.60 μg cm^−2

Compound: COc1ccc2c(c1)c(CC(=O)O)c(C)n2C(=O)c1ccc(Cl)cc1 [Indomethacin]
- Conc., wt % [1]: >5 wt %
- Max. mass fraction [1]: 10%
- Sol. type [1]: Molecular
- Solubility of analgesic drugs in compositions: A [1]: ✓
- Solubility of analgesic drugs in compositions: B [1]: ✓
- Soluble in A [1]: ✓
- Solubility in water [2]: 2 µg/mL (≈ 5.59 µM)

Compound: CC(C(=O)O)c1cccc(C(=O)c2ccccc2)c1 (stereo not drawn) [Ketoprofen]
- Permeated drug amount ([3]; sample 1 hours): 0.90 μg cm^−2
- Permeated drug amount ([3]; sample 2 hours): 4.59 μg cm^−2
- Permeated drug amount ([3]; sample 4 hours): 17.37 μg cm^−2
- Permeated drug amount ([3]; sample 6 hours): 35.67 μg cm^−2

Compound: CC(C)[C@@H]1CC[C@@H](C)C[C@H]1O [Levomenthol]
- Conc., wt % [1]: >5 wt %
- Max. mass fraction [1]: 30%

Compound: CN(Cc1cnc2nc(N)nc(N)c2n1)c1ccc(C(=O)N[C@@H](CCC(=O)O)C(=O)O)cc1 [Methotrexate]
- Sol. type [1]: Molecular
- Max. mass fraction ([1]; grade A composition (Table 5)): 7%
- Soluble in A ([1]; grade A composition (Table 5)): ✓
- Solubility in water [2]: insoluble

Compound: COC(=O)c1ccccc1O [Methyl salicylate]
- Permeated drug amount ([3]; sample 1 hours): 18.25 μg cm^−2
- Permeated drug amount ([3]; sample 2 hours): 24.58 μg cm^−2
- Permeated drug amount ([3]; sample 4 hours): 59.78 μg cm^−2
- Permeated drug amount ([3]; sample 6 hours): 83.03 μg cm^−2
- Sol. type [1]: Molecular
- Solubility in adhesive F15 ([1]; adhesive grade F15): ✓
- Solubility in adhesive F16 ([1]; adhesive grade F16): ✓
- Solubility in adhesive F17 ([1]; adhesive grade F17): ✓
- Conc., wt % ([1]; grade A composition): >5 wt %
- Solubility of analgesic drugs in compositions: A ([1]; grade A composition): ✓
- Max. mass fraction ([1]; grade A composition (Table 5)): 30%
- Soluble in A ([1]; grade A composition (Table 5)): ✓
- Conc., wt % ([1]; grade B composition): >5 wt %
- Solubility of analgesic drugs in compositions: B ([1]; grade B composition): ✓
- Drug solubility compared between all three grades ([1]; grades A, B and C): identical
- Solubility in the standard grade (A) composition, in words ([1]; standard grade (A)): readily soluble
- Solubility in water [2]: 690 µg/mL (≈ 4540 µM)

Compound: CN1CCCC1c1cccnc1 (stereo not drawn) [Nicotine]
- Permeated drug amount ([3]; sample 1 hours): 2.26 μg cm^−2
- Permeated drug amount ([3]; sample 2 hours): 5.05 μg cm^−2
- Permeated drug amount ([3]; sample 4 hours): 13.76 μg cm^−2
- Permeated drug amount ([3]; sample 6 hours): 18.33 μg cm^−2
- Concentration / mass fraction in patches can be increased up to [1]: up to 30 % w/w
- Max. mass fraction [1]: 30%
- Sol. type [1]: Molecular
- Solubility in compositions and patches of the invention, in words [1]: freely soluble
- Soluble in A [1]: ✓

Compound: C[C@@H]1[C@H](O)[C@@H](C)/C=C/C=C/CC/C=C/C=C/C=C/C=C/C(O[C@H]2O[C@H](C)[C@@H](O)[C@H](N)[C@@H]2O)CC2O[C@](O)(CC(O)C(O)CCC(O)CC(O)CC(O)CC(=O)O[C@H]1C)CC(O)C2C(=O)O (stereo partly drawn) [Nystatin]
- Sol. type ([1]; grade A composition (Table 5)): Molecular
- Soluble in A ([1]; grade A composition (Table 5)): ✓

Compound: CC1(C)S[C@@H]2[C@H](NC(=O)Cc3ccccc3)C(=O)N2[C@H]1C(=O)O [Penicillin G]
- Sol. type ([1]; grade A composition (Table 5)): Dispersion

Compound: CN1C(C(=O)Nc2ccccn2)=C(O)c2ccccc2S1(=O)=O [Piroxicam]
- Sol. type [1]: Molecular
- Conc., wt % ([1]; grade A composition): ~2.5 wt %
- Solubility of analgesic drugs in compositions: A ([1]; grade A composition): ✓
- Max. mass fraction ([1]; grade A composition (Table 5)): 2.5%
- Soluble in A ([1]; grade A composition (Table 5)): ✓
- Conc., wt % ([1]; grade B composition): ~2.5 wt %
- Solubility of analgesic drugs in compositions: B ([1]; grade B composition): ✓
- Limited solubility ([1]; standard grade (A)): ~2.5 % w/w

Compound: CCCN[C@H]1CCc2nc(N)sc2C1 [Pramipexole]
- Sol. type [1]: Dispersion
- Solubility in water [2]: 3900 µg/mL (≈ 18500 µM)

Compound: O=C(C1CCCCC1)N1CC(=O)N2CCc3ccccc3C2C1 (stereo not drawn) [Praziquantel]
- Max. mass fraction [1]: 10%
- Sol. type [1]: Molecular
- Soluble in A [1]: ✓

Compound: C[C@]12C=CC(=O)C=C1CC[C@@H]1[C@@H]2[C@@H](O)C[C@@]2(C)[C@H]1CC[C@]2(O)C(=O)CO [Prednisolone]
- Sol. type ([1]; grade A composition (Table 5)): Dispersion

Compound: CCCNC(C)C(=O)Nc1ccccc1C (stereo not drawn) [Prilocaine]
- Distribution of the drug in the patch [1]: uniformly distributed in the patch in a form of micro particles
- Sol. type [1]: Dispersion
- Solubility in the standard grade (A) composition, in words [1]: poor solubility
- Solubility in water [2]: 540 µg/mL (≈ 2450 µM)

Compound: CC(=O)[C@H]1CC[C@H]2[C@@H]3CCC4=CC(=O)CC[C@]4(C)[C@H]3CC[C@]12C [Progesterone]
- Max. mass fraction [1]: 15%
- Sol. type [1]: Molecular
- Soluble in A [1]: ✓
- Solubility in water [2]: 9 µg/mL (≈ 28.6 µM)

Compound: CC(C)(C)NCC(O)c1ccc(O)c(CO)c1 (stereo not drawn) [Salbutamol]
- Max. mass fraction [1]: 5%
- Sol. type [1]: Molecular
- Soluble in A [1]: ✓

Compound: O=C(O)c1ccccc1O [Salicylic acid]
- Permeated drug amount ([3]; sample 1 hours): 3.38 μg cm^−2
- Permeated drug amount ([3]; sample 2 hours): 11.92 μg cm^−2
- Permeated drug amount ([3]; sample 4 hours): 31.75 μg cm^−2
- Permeated drug amount ([3]; sample 6 hours): 54.71 μg cm^−2
- Conc., wt % [1]: >5 wt %
- Max. mass fraction [1]: 30%
- Sol. type [1]: Molecular
- Solubility in the standard grade (A) composition, in words [1]: readily soluble
- Solubility of analgesic drugs in compositions: A [1]: ✓
- Solubility of analgesic drugs in compositions: B [1]: ✓
- Soluble in A [1]: ✓

Compound: O=C(Oc1ccccc1C(=O)O)c1ccccc1O [Salsalate]
- Conc., wt % [1]: >5 wt %
- Max. mass fraction [1]: 10%
- Sol. type [1]: Molecular
- Solubility of analgesic drugs in compositions: A [1]: ✓
- Solubility of analgesic drugs in compositions: B [1]: ✓
- Soluble in A [1]: ✓
- Solubility in water [2]: 246 µg/mL (≈ 953 µM)

Compound: C[C@]12CC[C@H]3[C@@H](CCC4=CC(=O)CC[C@@]43C)[C@@H]1CC[C@@H]2O [Testosterone]
- Max. mass fraction ([1]; grade A composition (Table 5)): 5%
- Sol. type ([1]; grade A composition (Table 5)): Molecular
- Soluble in A ([1]; grade A composition (Table 5)): ✓

Compound: COc1cc(Cc2cnc(N)nc2N)cc(OC)c1OC [Trimethoprim]
- Sol. type [1]: Dispersion

Compound: Ivermectin
- Max. mass fraction ([1]; grade A composition (Table 5)): 5%
- Sol. type ([1]; grade A composition (Table 5)): Molecular
- Soluble in A ([1]; grade A composition (Table 5)): ✓
